The text below walks through data of patent publication US10420831B2, “Inactivation of viruses by delipidation” (priority 2016, dated 2019).

Read-outs that look alike come from different tables or passages of the source.

Test [1] relates to human influenza virus H1N1 A/WSN/33 strain. The experiment in a line: Hemagglutination (HA) activity of treated IFV with chicken red blood cells. The protocol: Hemagglutination (HA) activity is determined as follows. Freshly isolated chicken blood is washed three times with PBS, and the red blood cells (RBC) are resuspended in PBS at a concentration of 1%. Virus dilutions (50 μL) are made in PBS and mixed with 50 μL of the RBC suspension. The mixture is added to individual wells in a 96-well plate and the RBC are allowed to settle for 45 minutes. The wells are judged to be HA negative (i.e. no agglutination of RBC) if a dot or pellet of RBC is present, and a well is judged to be positive if a smooth suspension of RBC is present.
In addition to MBCD, another lipid solvent, diisopropyl ether (DIPE) is used to delipidate IFV. […] After a brief centrifugation at 2,000×g for 3 minutes, visible solvent is removed, and the aqueous materials are left to dry in a fume hood for 20 minutes. The samples are then centrifuged at 200,000×g for 30 minutes to recover virus particles.

Test [2] shares this test system. It is filed as cell-based.

For `CC(C)OC(C)C` [DIPE, diisopropyl ether], the HA units in test [1] (2% DIPE, 37° C., 30 minutes) is 32 HA units; in test [1] (4% DIPE, 37° C., 30 minutes), 32 HA units; in test [1] (8% DIPE, 37° C., 30 minutes) it was 32 HA units; in test [1] (10% DIPE, end-over-end rotation at 37° C. for 30 minutes), 16 HA units; in test [1] (12% DIPE, 37° C., 30 minutes), 16 HA units. Besides, the “effect on HA activity (in words)” value in test [1] (10% DIPE, 30 minutes) is recorded as “measurably reduced”. Also, the “IFV infectivity reduced, compared to the mock-treatment” value in test [2] (12% DIPE, 37° C., 30 minutes, […]) is 32 fold. Besides, the PFU/mL in test [2] (IFV, 2% DIPE, 37° C., 30 minutes) is listed as 1.2 × 10^8 PFU/mL; in test [2] (IFV, 4% DIPE, 37° C., 30 minutes), 1.4 × 10^8 PFU/mL; in test [2] (IFV, 8% DIPE, 37° C., 30 minutes), 9.0 × 10^7 PFU/mL; in test [2] (IFV, 10% DIPE, end-over-end rotation at 37° C. for 30 minutes), 1.0 × 10^5 PFU/mL; in test [2] (IFV, 12% DIPE, 37° C., 30 minutes), 2.8 × 10^7 PFU/mL. Further, the “decrease in infectivity in vitro” value in test [2] (IFV, 10% DIPE, 30 minute treatment) is given as around 120 fold.
